In patent US6284785A, “1-arenesulfonyl-2-aryl-pyrrolidine and pyridine derivatives” (Hoffmann- La Roche Inc., priority 1999, dated 2001):

Target: T1, rat mGlu 1a receptor (Rattus norvegicus, UniProt P23385)
T1 construct: expressed in transfected cells; host or cells: EBNA cells (transient transfection)
Test: [Ca2+]i measurements (FLIPR, Fluo-3 AM) on mGlu 1a transfected EBNA cells; agonist or antagonist (against 10 μM glutamate)
Format: cell-based
Conditions: for Remarks (agonist / antagonist): table of substituents of the Examples, column Remarks; for agonist/antagonist: activity-data table; for EC50: agonist, activation of mGlu 1a in EBNA cells, read-out: IC50 (compounds marked agonist); for IC50: antagonist, tested against 10 μM glutamate as agonist, read-out: IC50 (compounds marked antagonist)
Method: cDNA encoding rat mGlu 1a receptor obtained from Prof. Nakanishi (Kyoto, Japan) was transiently tranfected into EBNA cells using a procedure described by Schlaeger et. al, New Dev. New Appl. Anim Cell Techn., Proc. ESACT Meet., 15th (1998), 105-112 and 117-120. [Ca^2+ ]i measurements were performed on mGlu 1a transfected EBNA cells after incubation of the cells with Fluo-3 AM (0.5 μM final concentration) for 1hour at 37° C. followed by 4 washes with assay buffer (DMEM supplemented with Hank's salt and 20 mM HEPES. [Ca^2+ ]i measurements were done using a fluorometric imaging plate reader (FLIPR, Molecular Devices Corporation, La Jolla, Calif. USA). When compounds were evaluated as antagonists they were tested against 10 μM glutamate as agonist.
The inhibition (antagonists) or activation (agonists) curves were fitted with a four parameter logistic equation giving EC50, IC50, and Hill coefficient using the iterative non linear curve fitting software Origin (Microcal Software Inc., Northampton, Mass., USA).

T1 sequence (P23385 19-1199): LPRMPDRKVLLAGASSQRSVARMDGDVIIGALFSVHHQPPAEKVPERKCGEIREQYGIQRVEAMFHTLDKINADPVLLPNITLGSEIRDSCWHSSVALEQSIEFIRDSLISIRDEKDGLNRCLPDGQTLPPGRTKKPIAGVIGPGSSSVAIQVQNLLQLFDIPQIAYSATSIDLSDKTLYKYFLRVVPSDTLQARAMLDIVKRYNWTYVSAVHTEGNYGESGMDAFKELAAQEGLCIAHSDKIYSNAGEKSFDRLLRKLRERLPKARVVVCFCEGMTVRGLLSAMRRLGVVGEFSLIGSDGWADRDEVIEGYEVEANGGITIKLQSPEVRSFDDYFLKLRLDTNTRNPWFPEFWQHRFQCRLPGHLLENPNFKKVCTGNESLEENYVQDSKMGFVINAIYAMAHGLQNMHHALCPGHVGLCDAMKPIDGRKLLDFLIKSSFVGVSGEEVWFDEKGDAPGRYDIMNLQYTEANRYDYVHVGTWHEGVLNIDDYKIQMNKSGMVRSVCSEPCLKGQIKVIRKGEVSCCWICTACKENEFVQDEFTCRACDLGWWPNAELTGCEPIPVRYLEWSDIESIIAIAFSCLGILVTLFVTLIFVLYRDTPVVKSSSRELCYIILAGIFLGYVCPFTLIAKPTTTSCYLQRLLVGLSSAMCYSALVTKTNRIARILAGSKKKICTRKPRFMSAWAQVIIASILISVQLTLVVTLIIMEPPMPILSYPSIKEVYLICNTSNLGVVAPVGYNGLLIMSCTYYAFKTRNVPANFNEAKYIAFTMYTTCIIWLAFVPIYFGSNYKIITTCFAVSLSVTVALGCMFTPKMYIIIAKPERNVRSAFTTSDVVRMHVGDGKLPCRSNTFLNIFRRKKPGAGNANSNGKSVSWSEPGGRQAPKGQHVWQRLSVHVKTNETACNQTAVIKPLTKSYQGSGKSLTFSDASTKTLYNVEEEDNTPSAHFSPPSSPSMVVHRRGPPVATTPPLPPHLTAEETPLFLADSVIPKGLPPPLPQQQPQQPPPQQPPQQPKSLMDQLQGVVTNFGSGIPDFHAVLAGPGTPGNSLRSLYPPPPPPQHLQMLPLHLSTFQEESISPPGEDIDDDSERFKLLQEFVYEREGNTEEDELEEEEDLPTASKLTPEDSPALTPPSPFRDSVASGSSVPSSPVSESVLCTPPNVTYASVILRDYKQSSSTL

Remarks (agonist / antagonist)	agonistic / antagonistic activity to the mGlu receptor	SMILES	also measured
Agonist	–	Cc1ccc(S(=O)(=O)N2CCCC2c2cccc(F)c2)cc1 (racemic) [Example 1, (RS)-2-(3-Fluoro-phenyl)-1-(toluene-4-sulfonyl)-pyrrolidine]	–
Agonist	–	O=S(=O)(c1ccc(Cl)cc1)N1CCCC1c1cccc(F)c1 (racemic) [Example 2, (RS)-1-(4-Chloro-benzenesulfonyl)-2-(3-fluoro-phenyl)-pyrrolidine]	–
Agonist	–	Cc1ccc(S(=O)(=O)N2CCCC2c2ccncc2)cc1 (racemic) [Example 3, (RS)-4-[1-(Toluene-4-sulfonyl)-pyrrolidin-2-yl]-pyridine]	agonist/antagonist: agonist; EC50: 8.22 µM
Agonist	–	Cc1ccc(S(=O)(=O)N2CCCC2c2ccccc2)cc1 (racemic) [Example 4, (RS)-2-Phenyl-1-(toluene-4-sulfonyl)-pyrrolidine]	agonist/antagonist: agonist; EC50: 0.23 µM
Agonist	agonistic activty	O=S(=O)(c1ccc(Cl)cc1)N1CCCC1c1ccccc1 (racemic) [Example 6, (RS)-1-(4-Chloro-benzenesulfonyl)-2-phenyl-pyrrolidine]	–
Antagonist	–	O=S(=O)(c1ccccc1)N1CCCC1c1ccc(F)cc1 (racemic) [Example 7, (RS)-1-Benzenesulfonyl-2-(4-fluoro-phenyl)-pyrrolidine]	agonist/antagonist: antagonist; IC50: 8 µM
Agonist	agonistic activty	Cc1ccc(S(=O)(=O)N2CCCC2c2ccc(Cl)cc2)cc1 (racemic) [Example 8, (RS)-2-(4-Chloro-phenyl)-1-(toluene-4-sulfonyl)-pyrrolidine]	–
Agonist	agonistic activty	O=S(=O)(c1ccc(Cl)cc1)N1CCCC1c1ccc(Cl)cc1 (racemic) [Example 9, (RS)-1-(4-Chloro-benzenesulfonyl)-2-(4-chloro-phenyl)-pyrrolidine]	–
Antagonist	–	COc1ccc(S(=O)(=O)N2CCCC2c2ccc(F)cc2)cc1 (racemic) [Example 10, (RS)-2-(4-Fluoro-phenyl)-1-(4-methoxy-benzenesulfonyl)-pyrrolidine]	–
Agonist	–	O=S(=O)(c1ccc(Cl)cc1)N1CCCC1c1ccc(F)cc1 (racemic) [Example 11, (RS)-1-(4-Chloro-benzenesulfonyl)-2-(4-fluorophenyl)-pyrrolidine]	–
Agonist	–	Cc1ccc(S(=O)(=O)N2CCCC2c2ccc(F)cc2)cc1 (racemic) [Example 12, (RS)-2-(4-Fluoro-phenyl)-1-(toluene-4-sulfonyl)-pyrrolidine]	–
Agonist	–	O=S(=O)(c1ccccc1)N1CCCC1c1ccc(Cl)cc1 (racemic) [Example 13, (RS)-1-Benzenesulfonyl-2-(4-chloro-phenyl)-pyrrolidine]	–
Agonist	–	O=S(=O)(c1ccc(Cl)cc1)N1CCCC1c1ccncc1 (racemic) [Example 14, (RS)-4-1-(4-Chloro-benzenesulfonyl)-pyrrolidine-pyridine]	–
Agonist	agonistic activty	O=S(=O)(c1ccc(F)cc1)N1CCCC1c1ccc(F)cc1 (racemic) [Example 16, (RS)-1-(4-Fluoro-benzenesulfonyl)-2-(4-fluoro-phenyl)-pyrrolidine]	–
Antagonist	–	Cc1ccccc1S(=O)(=O)N1CCCC1c1ccc(F)cc1 (racemic) [Example 18, (RS)-2-(4-Fluoro-phenyl)-1-(toluene-2-sulfonyl)-pyrrolidine]	agonist/antagonist: antagonist; IC50: 1.37 µM
Agonist	agonistic activty	Cc1ccc(C2CCCN2S(=O)(=O)c2ccc(C)cc2)cc1 (racemic) [Example 19, (RS)-1-(Toluene-4-sulfonyl)-2-p-tolyl-pyrrolidine]	–
Antagonist	–	Cc1ccc(C2CCCN2S(=O)(=O)c2ccc(Cl)cc2)cc1 (racemic) [Example 20, (RS)-1-(4-Chloro-benzenesulfonyl)-2-p-tolyl-pyrrolidine]	–
Agonist	agonistic activty	CCc1ccc(S(=O)(=O)N2CCCC2c2ccc(F)cc2)cc1 (racemic) [Example 21, (RS)-1-(4-Ethyl-benzenesulfonyl)-2-(4-fluoro-Rhenyl)-pyrrolidine]	–
Antagonist	–	CC(C)c1ccc(S(=O)(=O)N2CCCC2c2ccc(F)cc2)cc1 (racemic) [Example 22, (RS)-2-(4-Fluoro-phenyl)-1-(4-isopropyl-benzenesulfonyl)-pyrrolidine]	–
Antagonist	–	Cc1ccc(C2CCCN2S(=O)(=O)c2ccc(F)cc2)cc1 (racemic) [Example 23, (RS)-1-(4-Fluoro-benzenesulfonyl)-2-p-tolyl-pyrrolidine]	–
Antagonist	–	COc1ccc(C2CCCN2S(=O)(=O)c2ccc(Cl)cc2)cc1 (racemic) [Example 24, (RS)-1-(4-Chloro-benzenesulfonyl)-2-(4-methoxyl-phenyl)-pyrrolidine]	–
Agonist	agonistic activty	COc1ccc(C2CCCN2S(=O)(=O)c2ccc(C)cc2)cc1 (racemic) [Example 25, (RS)-2-(4-Methoxy-phenyl)-1-(toluene-4-sulfonyl)-pyrrolidine]	–
Agonist	agonistic activty	O=S(=O)(c1ccc(Br)cc1)N1CCCC1c1ccc(F)cc1 (racemic) [Example 26, (RS)-1-(4-Bromo-benzenesulfonyl)-2-(4-fluoro-phenyl)-pyrrolidine]	–
Antagonist	–	CC(=O)c1ccc(S(=O)(=O)N2CCCC2c2ccc(F)cc2)cc1 (racemic) [Example 27, (RS)-1-{4-[2-(4-Fluoro-phenyl)-pyrrolidine-1-sulfonyl]-phenyl}-ethanone]	–
Agonist	–	Cc1ccc(S(=O)(=O)N2CCCC2c2cccc(C)c2)cc1 (racemic) [Example 28, (RS)-1-(Toluene-4-sulfonyl)-2-m-tolyl-pyrrolidine]	–
Agonist	agonistic activty	Cc1cccc(C2CCCN2S(=O)(=O)c2ccc(Cl)cc2)c1 (racemic) [Example 29, (RS)-1-(4-Chloro-benzenesulfonyl)-2-m-tolyl-pyrrolidine]	–
Antagonist	–	Cc1cccc(C2CCCN2S(=O)(=O)c2ccc(F)cc2)c1 (racemic) [Example 30, (RS)-1-(4-Fluoro-benzenesulfonyl)-2-m-tolyl-pyrrolidine]	–
Agonist	agonistic activty	Cc1ccc(S(=O)(=O)N2CCCC2c2cccc(Cl)c2)cc1 (racemic) [Example 31, (RS)-2-(3-Chloro-phenyl)-1-(toluene-4-sulfonyl)-pyrrolidine]	–
Antagonist	–	O=S(=O)(c1ccc(Cl)cc1)N1CCCC1c1cccc(Cl)c1 (racemic) [Example 32, (RS)-1-(4-Chloro-benzenesulfonyl)-2-(3-chloro-phenyl)-pyrrolidine]	–
